Data published in PubChem BioAssay (NCI).
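Briefly, cells in 96-well plates were exposed to five compound concentrations for 48 h, and endpoints were estimated by linear interpolation. TGI marks complete inhibition of growth.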

Key:
Experiment in all cases: NCI anticancer screen, dose series, 48 h
A549 NSCLC = system: A549 NSCLC
CAKI-1 renal = system: CAKI-1 renal
HOP-62 NSCLC = system: HOP-62 NSCLC
MDA-MB-231 breast = system: MDA-MB-231 breast
OVCAR-8 ovarian = system: OVCAR-8 ovarian
PC-3 prostate = system: PC-3 prostate
RPMI-8226 leukemia = system: RPMI-8226 leukemia
RXF 393 renal = system: RXF 393 renal
SK-MEL-2 melanoma = system: SK-MEL-2 melanoma
SK-MEL-28 melanoma = system: SK-MEL-28 melanoma
SK-MEL-5 melanoma = system: SK-MEL-5 melanoma
SW-620 colon = system: SW-620 colon

Measured: TGI

COc1ccc(CCNC(=O)Cc2cc(OC)c(OC)cc2CO)cc1OC
> 100 µM: all assays above

c1cc2c(c(-c3c4ccccc4nc4ccccc34)c1)CC1(CC2)OCCO1
> 100 µM: all assays above
